18 molecules from US11364222B2, “Combination therapy for treatment of cancer” (G1 Therapeutics, Inc., priority 2017, dated 2022) can be followed below.

Each structure is given as a SMILES string. “Also recorded” adds a separate entry of the source. Some results are limits rather than exact numbers.

The test system of one data set is MCF7:WS8. As to the kind of experiment: Cell viability of MCF7:WS8, fluorescent DNA quantitation. As to conditions: MCF7:WS8 cells, day 4, total DNA; for IC50: 96 h, read-out: MCF-7WS8 IC50. The format is cell-based.
Another data set concerns MCF7:5C. In words: Cell viability of MCF7:5C (tamoxifen resistant), fluorescent DNA quantitation. As to conditions: 144 h, read-out: MCF-7:5C IC50. The class given is cell-based.
Data set [1] concerns MCF-7 cells. In words: MCF7 7 day proliferation assay in the presence of 0.1 nM E2 (Hoechst DNA content). The class given is cell-based. As to conditions: for IC50: Homo sapiens, MCF7, 168 h, read-out: IC50, MCF7 proliferation.
In data set [2] the test system is MCF-7 cells. As to the kind of experiment: MCF7 7 day proliferation assay in the presence of 20 nM insulin (Hoechst DNA content). The format is cell-based. As to conditions: Homo sapiens, MCF7, 168 h, read-out: IC50, MCF7 insulin driven proliferation.
Another data set has as its target T1, estrogen receptor (ER) (Homo sapiens, UniProt P03372).
T1 sequence (P03372 1-595): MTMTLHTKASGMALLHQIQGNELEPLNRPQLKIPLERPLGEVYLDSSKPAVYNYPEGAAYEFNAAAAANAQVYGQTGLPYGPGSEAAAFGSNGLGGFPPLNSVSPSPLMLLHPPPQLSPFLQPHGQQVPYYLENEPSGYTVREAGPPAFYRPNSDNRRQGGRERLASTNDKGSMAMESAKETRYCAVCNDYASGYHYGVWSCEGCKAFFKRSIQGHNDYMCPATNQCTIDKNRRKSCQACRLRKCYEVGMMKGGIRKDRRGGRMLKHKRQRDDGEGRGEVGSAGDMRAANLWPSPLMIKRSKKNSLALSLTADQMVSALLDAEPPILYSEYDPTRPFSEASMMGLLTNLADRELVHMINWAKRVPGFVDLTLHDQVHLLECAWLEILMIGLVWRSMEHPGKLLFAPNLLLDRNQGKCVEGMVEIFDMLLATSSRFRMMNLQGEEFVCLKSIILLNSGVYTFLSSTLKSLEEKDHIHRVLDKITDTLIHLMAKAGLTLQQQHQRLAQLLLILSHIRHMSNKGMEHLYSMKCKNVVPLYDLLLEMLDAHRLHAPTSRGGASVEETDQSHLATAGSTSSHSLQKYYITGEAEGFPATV
As to conditions: MCF7 cells, presence or absence of proteasome pathway inhibitor MG132, FIG. 4.

Data set [3] can be described thus: Glucuronidation in gut intestinal mucosa and liver S9 fraction. The class given is in vitro ADME. As to conditions: gut intestinal mucosa and human S9 fraction from the liver.
For data set [4], the system named is estrogen-receptor negative cell. As to the kind of experiment: Estrogen-receptor negative cell proliferation (summary statement). The class given is cell-based.
Data set [5] has as its system tamoxifen-resistant (TamR) xenograft tumors. As to the kind of experiment: Tamoxifen-resistant (TamR) xenograft tumors, tumor volume. As to conditions: 30 mg/kg qd and 100 mg/kg qd, approximately 70 days, FIG. 12B. The format is in vivo.
A short description of data set [6]: Oral bioavailability (summary statement). As to conditions: in vivo.
The target in another data set is hERG (Homo sapiens, UniProt Q12809). As to the kind of experiment: hERG inhibition (summary statement). Background: The hERG channel carries a current that helps repolarise heart muscle cells.
Sequence of hERG (Q12809 whole entry): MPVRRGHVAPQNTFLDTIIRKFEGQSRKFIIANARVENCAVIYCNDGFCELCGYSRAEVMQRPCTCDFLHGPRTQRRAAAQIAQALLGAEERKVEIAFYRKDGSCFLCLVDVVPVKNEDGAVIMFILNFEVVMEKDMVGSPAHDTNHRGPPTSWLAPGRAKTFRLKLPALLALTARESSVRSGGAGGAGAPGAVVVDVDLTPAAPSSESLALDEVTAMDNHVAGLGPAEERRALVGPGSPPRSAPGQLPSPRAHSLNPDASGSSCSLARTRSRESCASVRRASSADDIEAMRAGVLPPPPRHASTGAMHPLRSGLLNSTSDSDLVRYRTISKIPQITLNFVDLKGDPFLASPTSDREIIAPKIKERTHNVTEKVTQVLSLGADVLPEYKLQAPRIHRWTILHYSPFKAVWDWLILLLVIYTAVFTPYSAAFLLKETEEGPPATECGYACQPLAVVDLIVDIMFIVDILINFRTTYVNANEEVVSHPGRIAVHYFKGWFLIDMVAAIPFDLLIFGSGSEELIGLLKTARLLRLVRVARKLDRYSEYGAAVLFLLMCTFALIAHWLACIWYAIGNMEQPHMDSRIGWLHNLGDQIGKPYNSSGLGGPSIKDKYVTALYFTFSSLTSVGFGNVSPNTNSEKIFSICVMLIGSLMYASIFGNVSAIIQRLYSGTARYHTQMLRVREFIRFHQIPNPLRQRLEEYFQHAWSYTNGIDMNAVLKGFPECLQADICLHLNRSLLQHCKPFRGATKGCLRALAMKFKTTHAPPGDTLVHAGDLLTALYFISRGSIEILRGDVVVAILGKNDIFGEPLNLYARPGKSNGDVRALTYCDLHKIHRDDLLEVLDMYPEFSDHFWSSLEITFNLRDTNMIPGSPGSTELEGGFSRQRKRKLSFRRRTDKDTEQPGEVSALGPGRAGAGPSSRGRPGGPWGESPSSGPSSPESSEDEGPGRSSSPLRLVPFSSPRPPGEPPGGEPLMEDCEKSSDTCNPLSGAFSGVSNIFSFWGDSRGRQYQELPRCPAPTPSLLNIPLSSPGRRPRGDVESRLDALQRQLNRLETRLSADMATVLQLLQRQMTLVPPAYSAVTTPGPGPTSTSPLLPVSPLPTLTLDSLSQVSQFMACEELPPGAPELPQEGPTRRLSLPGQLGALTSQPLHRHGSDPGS
The subject of the next data set is LTED xenograft tumors. As to the kind of experiment: LTED xenograft tumors, model of aromatase inhibitor resistance. The class given is in vivo, OVX nu/nu (ovariectomy nude) mice. As to conditions: Compound 20 5, 10, 30 or 100 mg/kg, 30 days of treatment, FIG. 13.
For data set [7], the system named is estrogen-receptor positive cell. In words: Estrogen-receptor positive cell proliferation (summary statement). The class given is cell-based.

On to `Cc1cc(F)ccc1C(F)(F)c1sc2cc(O)ccc2c1Oc1ccc(/C=C/C(=O)O)cc1` [Compound 16, (E)-3-(4-((2-(Difluoro(4-fluoro-2-methylphenyl)methyl)-6-hydroxybenzo[b]thiophen-3-yl)oxy)phenyl)acrylic acid], for which the IC50 with MCF7:WS8 and in the data set on MCF7:5C was less than 100 nM each time.

`C[C@]12C[C@H](c3ccc(OCCCCCS(=O)(=O)CCCC(F)(F)C(F)(F)F)cc3)[C@@H]3c4ccc(O)cc4CC[C@H]3[C@@H]1CC[C@@H]2O` [RU 58668]: the IC50 with MCF-7 cells [1] (0.1 nM estradiol (E2), 7 day) was determined as 0.052 nM; in the data set with MCF-7 cells [2] (20 nM insulin, 7 day), 0.013 nM.

Consider `Cc1cc(F)ccc1C(=O)c1sc2cc(O)ccc2c1Oc1c(F)cc(/C=C/C(=O)O)cc1F` [Compound 14, (E)-3-(3,5-Difluoro-4-((2-(4-fluoro-2-methylbenzoyl)-6-hydroxybenzo[b]thiophen-3-yl)oxy)phenyl) acrylic acid], for which the IC50 with MCF7:WS8 and in the data set with MCF7:5C was greater than 10 nM each time.

For `O=C(c1ccc(OCCN2CCCCC2)cc1)c1c(-c2ccc(O)cc2)sc2cc(O)ccc12` [raloxifene], the IC50 with MCF-7 cells [1] was found to be 0.77 nM.

As for `Cc1ccc(C(=O)c2sc3cc(O)ccc3c2Oc2ccc(NC(=O)C(=O)O)cc2)c(C)c1` [Compound 19, 2-((4-((2-(2,4-Dimethylbenzoyl)-6-hydroxybenzo[b]thiophen-3-yl)oxy)phenyl)amino)-2-oxoacetic acid], in the data set on MCF7:WS8, the “MCF-7WS8 IC50 (nM)” value is “No Inhibition”. In the data set with MCF7:5C, the IC50 is greater than 10 nM.

Take `Cc1cc(F)ccc1C(=O)c1sc2cc(O)ccc2c1Oc1ccc(NC(=O)C(=O)O)cc1` [Compound 18, 2-((4-((2-(4-Fluoro-2-methylbenzoyl)-6-hydroxybenzo[b]thiophen-3-yl)oxy)phenyl)amino)-2-oxoacetic acid]: in the data set on MCF7:WS8, the “MCF-7WS8 IC50 (nM)” value is given as “No Inhibition”.

As for `Cc1cc(F)ccc1C1(c2sc3cc(O)ccc3c2Oc2ccc(/C=C/C(=O)O)cc2)CC1` [Compound 17, (E)-3-(4-((2-(1-(4-Fluoro-2-methylphenyl)cyclopropyl)-6-hydroxybenzo[b]thiophen-3-yl)oxy)phenyl) acrylic acid], the IC50 in the data set with MCF7:WS8 and in the data set on MCF7:5C was less than 100 nM in each case.

Take `Cc1c(-c2ccc(O)cc2)n(Cc2ccc(OCCN3CCCCCC3)cc2)c2ccc(O)cc12` [bazedoxifene]: in the data set with MCF-7 cells [1], the IC50 turned out to be 72 nM.

For `CC/C(=C(\c1ccc(O)cc1)c1ccc(OCCN(C)C)cc1)c1ccccc1` [4-hydroxytamoxifen], the IC50 in the data set with MCF-7 cells [1] was found to be 3.46 nM.

For the molecule `CC/C(=C(/c1ccc(/C=C/C(=O)O)cc1)c1ccc2[nH]ncc2c1)c1ccc(F)cc1Cl` [GDC-0810], the IC50 in the data set on MCF-7 cells [1] (0.1 nM estradiol (E2), 7 day) was found to be 1.84 nM; in the data set with MCF-7 cells [2] (20 nM insulin, 7 day), 0.055 nM.

Take `C[C@]12CC[C@@H]3c4ccc(O)cc4C[C@@H](CCCCCCCCC[S+]([O-])CCCC(F)(F)C(F)(F)F)[C@H]3[C@@H]1CC[C@@H]2O` (stereo partly shown) [fulvestrant]: the IC50 in the data set on MCF-7 cells [1] turned out to be 0.86 nM; in the data set with MCF-7 cells [2] it was 0.149 nM.

`O=C(O)/C=C/c1ccc(Oc2c(C(=O)c3ccc(O)cc3)sc3cc(O)ccc23)cc1` [Compound 2, (E)-3-(4-((6-Hydroxy-2-(4-hydroxybenzoyl)benzo[b]thiophen-3-yl)oxy)phenyl) acrylic acid]: the “MCF-7WS8 IC50 (nM)” value in the data set with MCF7:WS8 is recorded as “No Inhiibition”.

`Cc1cc(F)cc(C)c1C(=O)c1sc2cc(O)ccc2c1Oc1ccc(/C=C/C(=O)O)cc1` [Compound 20, (E)-3-(4-((2-(4-Fluoro-2,6-dimethylbenzoyl)-6-hydroxybenzo[b]thiophen-3-yl)oxy)phenyl) acrylic acid]: in the data set with MCF-7 cells [1] (0.1 nM E2, 7 day proliferation), the “times more potent than fulvestrant” value is given as roughly 4 times. Besides, the IC50 was 0.26 nM in the data set with MCF-7 cells [1] (0.1 nM estradiol (E2), 7 day); greater than 10 nM in data set [4]; greater than 10000 nM on hERG; 0.028 nM with MCF-7 cells [2] (20 nM insulin, 7 day); less than 1 nM in data set [7]. Besides, the “degradation of the estrogen receptor (ESR1a) with or without MG132” value at estrogen receptor (ER) is “dependent on the absence of MG132”. For the same molecule, the glucuronidation result in [3] is “observed”. Further, the “tumor volume, Compound 20 alone” value in data set [5] is recorded as “effective in decreasing tumor volume”. The oral bioavailability entry in [6] is given as “good”. In addition, the tumor volume entry with LTED xenograft tumors is on record as “decrease in tumor volume correlated with the dose level; also recorded: effective in decreasing tumor volume at all doses”.

As for `Cc1cc(F)ccc1C(=O)c1sc2cc(O)ccc2c1Oc1ccc(/C=C/C(=O)O)cc1F` [Compound 15, (E)-3-(3-Fluoro-4-((2-(4-fluoro-2-methylbenzoyl)-6-hydroxybenzo[b]thiophen-3-yl)oxy)phenyl) acrylic acid], the IC50 in the data set with MCF7:WS8 and in the data set with MCF7:5C was less than 10 nM in each case.

For `Oc1ccc2c(c1)CC[C@H](c1ccccc1)[C@@H]2c1ccc(OCCN2CCCC2)cc1` [lasofoxofene, Lasofoxifene], the IC50 in the data set on MCF-7 cells [1] (0.1 nM estradiol (E2), 7 day) was determined as 0.17 nM.

`CC/C(=C(\c1ccccc1)c1ccc(/C=C/C(=O)O)cc1)c1ccccc1` [GW-5638, Etacstil]: the IC50 in the data set with MCF-7 cells [1] (0.1 nM estradiol (E2), 7 day) stood at 946 nM.

`CC/C(=C(\c1ccccc1)c1ccc(/C=C/C(=O)O)cc1)c1ccc(O)cc1` [GW-7604]: the IC50 in the data set on MCF-7 cells [1] (0.1 nM estradiol (E2), 7 day) came out at 1.81 nM.

As for `C[C@@H]1Cc2c([nH]c3ccccc23)[C@@H](c2c(F)cc(/C=C/C(=O)O)cc2F)N1CC(C)(C)F` [AZD9496], the values for the IC50 with MCF-7 cells [1] and in the data set with MCF-7 cells [2] were 0.04 nM and 0.002 nM, respectively.
